The subject of test [1] is A2780. Conditions: Homo sapiens, A2780, 48 h.
Test [2] in a line: Induction of assembly of GTP-tubulin into microtubules assessed as critical concentration.
Test [3] relates to A2780. In words: Resistant factor, ratio of IC50 for p-glycoprotein expressing drug-resistant human A2780AD cells to IC50 for human A2780 cells. It is filed as functional.
Test [4] relates to A2780. The test is described as follows: cells. Conditions: Homo sapiens, A2780, 48 h.
Description: Cytotoxicity against human A2780 cells after 48 hrs by MTT assay
Test [5] is described as follows: Displacement of non-fluorescent ligand from paclitaxel binding site of microtubule.

As a reminder, the IC50 is the midpoint of a concentration-inhibition curve. `COc1cccc(C(=O)O[C@H]2[C@@H]3[C@]4(OC(C)=O)CO[C@@H]4C[C@H](OC(=O)[C@H](C)NC(=O)c4ccc(-c5c6cc(F)c(=O)cc-6oc6cc(O)c(F)cc56)c(C(=O)O)c4)[C@@]3(C)C(=O)[C@H](OC(C)=O)C3=C(C)[C@@H](OC(=O)[C@H](O)[C@@H](NC(=O)c4ccccc4)c4ccccc4)C[C@]2(O)C3(C)C)c1`: the results for the IC50 in the test on A2780 [1] and with A2780 [4] were 7200 nM and 272 nM, respectively. The Activity in test [2] was found to be 2.17 µM. Further, the “Ratio IC50” value with A2780 [3] stood at 26.4.

`C/C=C(\C)C(=O)N[C@@H](c1ccccc1)[C@@H](O)C(=O)O[C@H]1C[C@@]2(O)[C@@H](OC(=O)c3cccc(N=[N+]=[N-])c3)[C@@H]3[C@]4(OC(C)=O)CO[C@@H]4C[C@H](OC(=O)[C@H](C)NC(=O)c4ccc(-c5c6ccc(=O)cc-6oc6cc(O)ccc56)c(C(=O)O)c4)[C@@]3(C)C(=O)[C@H](OC(C)=O)C(=C1C)C2(C)C`: the IC50 is more than 20000 nM in the test with A2780 [1] and 220 nM in the test with A2780 [4]. Also, the Activity in test [2] stood at 2.45 µM. Also, the “Ratio IC50” value with A2780 [3] is more than 91.

As for `COc1cccc(C(=O)O[C@H]2[C@@H]3[C@]4(OC(C)=O)CO[C@@H]4C[C@H](OC(=O)[C@H](C)NC(=O)c4ccc(-c5c6ccc(=O)cc-6oc6cc(O)ccc56)c(C(=O)O)c4)[C@@]3(C)C(=O)[C@H](OC(C)=O)C3=C(C)[C@@H](OC(=O)[C@H](O)[C@@H](NC(=O)c4ccccc4)c4ccccc4)C[C@]2(O)C3(C)C)c1`, the IC50 with A2780 [1] was found to be 716 nM; with A2780 [4], 19.5 nM. In addition, the Activity in test [2] turned out to be 2.26 µM. The “Ratio IC50” value in the test with A2780 [3] stood at 36.7.

In test [5], `C/C(=C\c1csc(C)n1)[C@@H]1C[C@@H]2O[C@]2(C)CCC[C@H](C)[C@H](O)[C@@H](C)C(=O)C(C)(C)[C@@H](O)CC(=O)O1` returned a Ka of 7.5 ×10⁸ /M.

As to `CC(=O)O[C@@]12CO[C@@H]1C[C@H](O)[C@@]1(C)C(=O)[C@H](O)C3=C(C)[C@@H](OC(=O)[C@H](O)[C@@H](NC(=O)OC(C)(C)C)c4ccccc4)C[C@@](O)([C@@H](OC(=O)c4ccccc4)[C@H]21)C3(C)C.O.O.O` [DOCETAXEL], the half-inhibitory concentration (IC50) in the test on A2780 [1] stood at 290 nM; in the test with A2780 [4] it was 0.6 nM. Moreover, the Activity in test [2] is 2.5 µM. In addition, the “Ratio IC50” value in the test on A2780 [3] is on record as 483.

For the compound `CC(=O)O[C@H]1C(=O)[C@]2(C)[C@@H](OC(=O)[C@H](C)NC(=O)c3ccc(-c4c5ccc(=O)cc-5oc5cc(O)ccc45)c(C(=O)O)c3)C[C@H]3OC[C@@]3(OC(C)=O)[C@H]2[C@H](OC(=O)c2ccccc2)[C@]2(O)C[C@H](OC(=O)[C@H](O)[C@@H](NC(=O)c3ccccc3)c3ccccc3)C(C)=C1C2(C)C` [FLUTAX 1], the values for the IC50 in the test on A2780 [1] and with A2780 [4] were more than 20000 nM and 256 nM, respectively. Further, the Activity in test [2] is 3.84 µM. The “Ratio IC50” value in the test on A2780 [3] is reported as more than 78.

Regarding `CC(=O)O[C@H]1C(=O)[C@]2(C)[C@@H](OC(=O)[C@H](C)NC(=O)c3ccc(-c4c5cc(F)c(=O)cc-5oc5cc(O)c(F)cc45)c(C(=O)O)c3)C[C@H]3OC[C@@]3(OC(C)=O)[C@H]2[C@H](OC(=O)c2ccccc2)[C@]2(O)C[C@H](OC(=O)[C@H](O)[C@@H](NC(=O)c3ccccc3)c3ccccc3)C(C)=C1C2(C)C` [FLUTAX 2], the IC50 in the test with A2780 [1] is more than 20000 nM; in the test with A2780 [4], 800 nM. Besides, in test [2], the Activity stood at 3.22 µM. The “Ratio IC50” value with A2780 [3] is reported as more than 25.

With `CC(=O)O[C@H]1C(=O)[C@@]2(C)[C@H]([C@H](OC(=O)c3ccccc3)[C@]3(O)C[C@H](OC(=O)[C@H](O)[C@@H](NC(=O)c4ccccc4)c4ccccc4)C(C)=C1C3(C)C)[C@]1(OC(C)=O)CO[C@@H]1C[C@@H]2O` [PACLITAXEL], in test [2], the Activity was determined as 4.23 µM. Inhibition in the test with A2780 [4] was half-maximal at 1.3 nM (IC50).
